This is an account of results in patent US6900244B2, “Anilino liver X-receptor modulators” (Pharmacia Corporation, priority 2002, dated 2005).

As usually defined, the melting point is the temperature, or range, at which the solid turns liquid. On to `CCOC(=O)CC(C)Nc1ccc(C(O)(C(F)(F)F)C(F)(F)F)cc1` (centres unmarked) [Example 1, Ethyl 3-({4-[2,2,2-trifluoro-1-hydroxy-1-(trifluoromethyl)ethyl]phenyl}amino)-butanoate], for which the melting point was 103 °C.

As to `CCOC(=O)C(C)(C)Nc1ccc(C(O)(C(F)(F)F)C(F)(F)F)cc1` [Example 3, Ethyl 2-methyl-N-{4-[2,2,2-trifluoro-1-hydroxy-1-(trifluoromethyl)ethyl]phenyl}-alaninate], the melting point is 93 °C.

The compound `CCOC(=O)CN(CC(F)(F)F)c1ccc(C(O)(C(F)(F)F)C(F)(F)F)cc1` [Example 5, Ethyl N-(2,2,2-trifluoroethyl)-N-{4-[2,2,2-trifluoro-1-hydroxy-1-(trifluoromethyl)-ethyl]phenyl}glycinate] registered a melting point of 67 °C.

For the compound `CCOC(=O)CCN(C)c1ccc(C(O)(C(F)(F)F)C(F)(F)F)cc1` [Example 14, Ethyl N-methyl-N-{4-[2,2,2-trifluoro-1-hydroxy-1-(trifluoromethyl)ethyl]phenyl}-beta-alaninate], the melting point was 77 °C.

`CCOC(=O)CN(Cc1ccccc1)c1ccc(C(O)(C(F)(F)F)C(F)(F)F)cc1` [Example 19, Ethyl N-benzyl-N-{4-[2,2,2-trifluoro-1-hydroxy-1-(trifluoromethyl)ethyl]-phenyl}glycinate] came in with a melting point of 116 °C.

`CCOC(=O)CN(Cc1ccccc1Cl)c1ccc(C(O)(C(F)(F)F)C(F)(F)F)cc1` [Example 21, Ethyl N-(2-chlorobenzyl)-N-{4-[2,2,2-trifluoro-1-hydroxy-1-(trifluoromethyl)ethyl]phenyl}glycinate] came in with a melting point of 146 °C.

In turn, `CCOC(=O)CN(Cc1cccnc1)c1ccc(C(O)(C(F)(F)F)C(F)(F)F)cc1` [Example 22, Ethyl N-(pyridin-3-ylmethyl)-N-{4-[2,2,2-trifluoro-1-hydroxy-1-(trifluoromethyl)ethyl]phenyl}glycinate] registered a melting point of 55 °C.

In the case of `CCOC(=O)CN1CCCc2cc(C(O)(C(F)(F)F)C(F)(F)F)ccc21` [Example 31, Ethyl [6-[2,2,2-trifluoro-1-hydroxy-1-(trifluoromethyl)ethyl]-3,4-dihydroquinolin-1(2H)-yl]acetate], the melting point turned out to be 66.5 °C.

The compound `CON(C)C(=O)CN(C)c1ccc(C(O)(C(F)(F)F)C(F)(F)F)cc1` [Example 32, N˜1˜-Methoxy-N˜1˜N˜2˜-dimethyl-N˜2˜-{4-[2,2,2-trifluoro-1-hydroxy-1-(trifluoromethyl)ethyl]phenyl}glycinamide] yielded a melting point of 121 °C.

The compound `CN(CC(=O)OCc1ccc(Cl)cc1)c1ccc(C(O)(C(F)(F)F)C(F)(F)F)cc1` [Example 35, 4-Chlorobenzyl N-methyl-N-{4-[2,2,2-trifluoro-1-hydroxy-1-(trifluoromethyl)-ethyl]phenyl}glycinate] gave a melting point of 66.5 °C.

`CN(CC(=O)N1CCOCC1)c1ccc(C(O)(C(F)(F)F)C(F)(F)F)cc1` [Example 38]: the melting point was determined as 149 °C.

The compound `CN(CC(=O)N1CCCC1)c1ccc(C(O)(C(F)(F)F)C(F)(F)F)cc1` [Example 39] had a melting point of 184 °C.

`CCOC(=O)CN(Cc1ccc(Cl)cc1Cl)c1ccc(C(O)(C(F)(F)F)C(F)(F)F)cc1` [Example 40, Ethyl N-(2,4-dichlorobenzyl)-N-{4-[2,2,2-trifluoro-1-hydroxy-1-(trifluoromethyl)ethyl]phenyl}glycinate]: the melting point turned out to be 111 °C.

In turn, `CCOC(=O)CN(Cc1cccc(Cl)c1)c1ccc(C(O)(C(F)(F)F)C(F)(F)F)cc1` [Example 41, Ethyl N-(3-chlorobenzyl)-N-{4-[2,2,2-trifluoro-1-hydroxy-1-(trifluoromethyl)ethyl]phenyl}glycinate] gave a melting point of 81.5 °C.

For the compound `CCOC(=O)CN(Cc1ccc(OC)cc1)c1ccc(C(O)(C(F)(F)F)C(F)(F)F)cc1` [Example 43, Ethyl N-(4-methoxybenzyl)-N-{4-[2,2,2-trifluoro-1-hydroxy-1-(trifluoromethyl)ethyl]phenyl}glycinate], the melting point was 68 °C.

For the compound `CCOC(=O)C1(Nc2ccc(C(O)(C(F)(F)F)C(F)(F)F)cc2)CCC(C(C)(C)C)CC1` (centres unmarked) [Example 49, Ethyl 4-tert-butyl-1-({4-[2,2,2-trifluoro-1-hydroxy-1-(trifluoromethyl)ethyl]phenyl}amino)cyclohexanecarboxylate], the melting point was 107 °C.

Take `CCOC(=O)C1(Nc2ccc(C(O)(C(F)(F)F)C(F)(F)F)cc2)CCC(C)CC1` (centres unmarked) [Example 50, Ehyl 4-methyl-1-({4-[2,2,2-trifluoro-1-hydroxy-1-(trifluoromethyl)ethyl]phenyl}amino)cyclohexanecarboxylate]: the melting point was determined as 142.6 °C.
